Literature values as cited in patent US9314419B2, “Oral care compositions with a reduced bitter taste perception” (The Procter & Gamble Company, priority 2014, dated 2016).

Conditions: concentration level where the cooling effect can be clearly recognized
In the case of `CC(C)[C@@H]1CC[C@@H](C)C[C@@H]1O` [Example 1-neomenthol, 1-neomenthol], the cooling threshold is listed as “about 3,000 ppb”.
In the case of `CC(C)[C@@H]1CC[C@@H](C)C[C@H]1O` [L-menthol], the cooling threshold is listed as “about 800 ppb”.
For `CC(C)[C@@H]1CC[C@@H](C)C[C@@H]1O` [d-neomenthol], the cooling threshold is given as “about 25,000 ppb”.
